Reference: PMC10526447 (Biomolecules, 2023)
Read-outs that look alike come from different tables or passages of the source. Positions of bridges follow the written chain, without caps; N, C: chain ends. No end group written: not given here.

Key:
[1] = system: Pseudotyped SARS-CoV-2 BA.2.75; details: Pseudotyped BA.2.75, 48 h
[2] = system: Pseudotyped SARS-CoV-2 BA.5; details: Pseudotyped BA.5, 48 h
[3] = system: Pseudotyped SARS-CoV-2 BA.2.12.1; details: Pseudotyped BA.2.12.1, 48 h
[4] = system: Pseudotyped SARS-CoV-2 BQ.1.1; details: Pseudotyped BQ.1.1, 48 h
[5] = system: Pseudotyped SARS-CoV-2 BA.4.6; details: Pseudotyped BA.4.6, 48 h
[6] = system: Pseudotyped SARS-CoV-2 BA.1; details: Pseudotyped BA.1, 48 h
[7] = system: Pseudotyped SARS-CoV-2 XBB; details: 48 h
[8] = system: Pseudotyped SARS-CoV-2 BF.7; details: Pseudotyped BF.7, 48 h
[9] = system: live SARS-CoV-2 Delta variant (B.1.617.2); details: live Delta variant (B.1.617.2, 2 h)
[10] = system: Pseudotyped SARS-CoV-2 BA.2; details: Pseudotyped BA.2, 48 h
[11] = system: Pseudotyped SARS-CoV-2 B.1.617.2 (Delta); details: Pseudotyped B.1.617.2 (Delta, 48 h)
[12] = system: Pseudotyped SARS-CoV-2 B.1.351 (Beta); details: Pseudotyped B.1.351 (Beta, 48 h)
[13] = system: Pseudotyped SARS-CoV-2 B.1.1.7 (Alpha); details: Pseudotyped B.1.1.7 (Alpha, 48 h)
[14] = system: Pseudotyped SARS-CoV-2 B.1.351 (Beta); details: Pseudotyped B.1.351 (Beta, 48 h); remark: listed apart in the source
[15] = system: Pseudotyped SARS-CoV-2 P.1 (Gamma); details: Pseudotyped P.1 (Gamma, 48 h)
[16] = system: Pseudotyped SARS-CoV-2 N501Y; details: 48 h
[17] = system: Pseudotyped SARS-CoV-2 B.1.617.2 (Delta); details: Pseudotyped B.1.617.2 (Delta, 48 h); remark: listed apart in the source
[18] = system: Pseudotyped SARS-CoV-2 B.1.1.7 (Alpha); details: Pseudotyped B.1.1.7 (Alpha, 48 h); remark: listed apart in the source
[19] = system: Pseudotyped SARS-CoV-2 C.37; details: Pseudotyped C.37, 48 h
[20] = system: Pseudotyped SARS-CoV-2 P.1 (Gamma); details: Pseudotyped P.1 (Gamma, 48 h); remark: listed apart in the source
[21] = system: Pseudotyped SARS-CoV-2 N501Y; details: 48 h; remark: listed apart in the source
[22] = system: Pseudotyped SARS-CoV-2 C.37; details: Pseudotyped C.37, 48 h; remark: listed apart in the source

Molecule | IC50 [1] | IC50 [2] | IC50 [3] | IC50 [4] | IC50 [5] | IC50 [6] | IC50 [7] | IC50 [8] | IC50 [9] | IC50 [10] | further results
CC[C@H](C)[C@H](NC(=O)[C@H](C)NC(=O)[C@H](CCC(=O)O)NC(=O)[C@H](CCC(=O)O)NC(=O)[C@H](CC(C)C)NC(=O)[C@H](CCCCN)NC(=O)[C@H](CCCCN)NC(=O)[C@H](CCSC)NC(=O)[C@H](CCC(=O)O)NC(=O)[C@H](Cc1ccc(O)cc1)NC(=O)[C@H](CCC(=O)O)NC(=O)[C@H](CC(C)C)NC(=O)[C@H](CC(=O)O)NC(=O)[C@H](CC(C)C)NC(=O)[C@H](Cc1ccccc1)NC(=O)[C@@H](NC(=O)[C@@H](NC(=O)[C@H](CC(N)=O)NC(=O)[C@@H](NC(=O)[C@H](CCC(N)=O)NC(=O)[C@H](CC(=O)O)NC(=O)[C@H](CC(C)C)NC(=O)[C@@H](N)CO)[C@@H](C)CC)C(C)C)[C@@H](C)O)C(=O)N[C@@H](CCCCN)C(=O)N[C@@H](CCCCN)C(=O)N[C@@H](CC(C)C)C(=O)N[C@@H](CCC(=O)O)C(=O)N[C@@H](CCC(=O)O)C(=O)N[C@@H](CO)C(=O)N[C@@H](Cc1ccc(O)cc1)C(=O)N[C@H](C(=O)N[C@@H](CC(=O)O)C(=O)N[C@@H](CC(C)C)C(=O)N[C@@H](CCCCN)C(=O)N[C@@H](CCC(=O)O)C(=O)N[C@@H](CC(C)C)C(=O)O)[C@@H](C)CC [EK1] | 248 nM | 690 nM | 592 nM | 378 nM | 201 nM | 334 nM | 366 nM | 260 nM | 296 nM | 544 nM | 
CC(C)C[C@@H]1NC(=O)[C@H](Cc2c[nH]cn2)NC(=O)[C@H](Cc2c[nH]c3ccccc23)NC(=O)[C@H](C)NC(=O)[C@@H](NC(=O)[C@@H](N)CC(=O)O)CSSC[C@@H](C(=O)N[C@H](C(=O)O)[C@@H](C)O)NC(=O)[C@H](Cc2c[nH]c3ccccc23)NC(=O)[C@H](C(C)C)NC(=O)[C@H](CC(C)C)NC(=O)[C@H](CCC(=O)O)NC(=O)CNC1=O [IBP] | > 50000 nM | > 50000 nM | > 50000 nM | > 50000 nM | > 50000 nM | > 50000 nM | > 50000 nM | > 50000 nM | > 50000 nM | > 50000 nM | IC50 [11]: > 50000 nM; IC50 [12]: > 50000 nM; IC50 [13]: > 50000 nM; IC50 [14]: > 50000 nM; IC50 [15]: > 50000 nM; IC50 [16]: > 50000 nM; IC50 [17]: > 50000 nM; IC50 [18]: > 50000 nM; IC50 [19]: > 50000 nM; IC50 [20]: > 50000 nM; IC50 [21]: > 50000 nM; IC50 [22]: > 50000 nM
DCAWHLGELVWCTSLDQINVTFLDLEYEMKKLEEAIKKLEESYIDLKEL (disulfide 2-12) [IBP-EK1] | 221 nM | 564 nM | 527 nM | 342 nM | 195 nM | 301 nM | 330 nM | 257 nM | 204 nM | 399 nM | 
